Values after ≈ are worked out from the molar mass of the structure shown. Values joined by “and” are separate entries in the source; they are usually repeats but may differ in a detail not shown here. Equal values may be shown once. Read-outs that look alike come from different tables or passages of the source.
What was measured:
[1] = test system: M. smegmatis mc^2155; type: cell-based, Mycobacterium smegmatis; conditions: pH 5.5
[2] = test system: M. bovis BCG; type: cell-based, Mycobacterium bovis
[3] = in vitro; conditions: human, microsomes
[4] = test system: Pseudomonas aeruginosa; experiment: microbe, parasite or virus in culture; type: cell-based
[5] = test system: PBS-starved H37Rv; type: cell-based, Mycobacterium tuberculosis
[6] = test system: M. bovis BCG; experiment: microbe, parasite or virus in culture; type: cell-based; conditions: Mycobacterium tuberculosis variant bovis BCG
[7] = test system: M. smegmatis mc^2155; experiment: microbe, parasite or virus in culture; type: cell-based, Mycobacterium smegmatis; conditions: Mycolicibacterium smegmatis
[8] = test system: Escherichia coli; experiment: microbe, parasite or virus in culture; type: cell-based
[9] = test system: Mtb H37Rv; experiment: microbe, parasite or virus in culture; type: cell-based, Mycobacterium tuberculosis; conditions: for MIC99: Mycobacterium tuberculosis, H37RV
[10] = in vitro; conditions: mouse, microsomes
[11] = test system: intracellular Mtb H37Rv in THP-1 cells; type: cell-based, Mycobacterium tuberculosis
[12] = in vitro; conditions: human, hepatocytes
[13] = test system: Mtb T 21 (INH-sensitive); experiment: microbe, parasite or virus in culture; type: cell-based; conditions: Mycobacterium tuberculosis
[14] = test system: M. bovis BCG; type: cell-based, Mycobacterium bovis; remark: listed apart in the source
[15] = test system: Staphylococcus aureus; experiment: microbe, parasite or virus in culture; type: cell-based
[16] = test system: Mtb Beijing 26 (RIF-sensitive); experiment: microbe, parasite or virus in culture; type: cell-based; conditions: Mycobacterium tuberculosis
[17] = test system: THP-1 cells; experiment: cells; type: cell-based; conditions: Homo sapiens, THP-1, 18 h, read-out: IC50 THP-1
[18] = test system: normal human foreskin fibroblast (HFF) cells; experiment: cells; type: cell-based; conditions: 48 h, read-out: IC50 HFF
[19] = mouse; for Clint: microsomes
[20] = test system: Mtb Haarlem 23 (RIF-sensitive); experiment: microbe, parasite or virus in culture; type: cell-based; conditions: Mycobacterium tuberculosis
[21] = test system: M. smegmatis mc^2155; type: cell-based, Mycobacterium smegmatis
[22] = test system: Bacillus subtilis; experiment: microbe, parasite or virus in culture; type: cell-based
[23] = human
[24] = test system: M. bovis BCG; type: cell-based, Mycobacterium bovis; remark: listed apart in the source
[25] = test system: M. smegmatis mc^2155; conditions: cited from earlier work

Structure (SMILES)	half-life [3]	sensitivity of non-replicating Mtb [5]	MIC99 ([9]; 120 h, read-out: MIC (MIC99))	half-life [10]	MIC [13]	MIC [16]	IC50 [17]	Predicted EH [19]	Clint [19]	MIC [20]	Predicted EH [23]	other results
N#CC(C#N)=NNc1cccc(Cl)c1 [CCCP, carbonyl cyanide m-chlorophenylhydrazone]	–	–	–	–	–	–	–	–	–	–	–	intrabacterial pH [1]: 5.5
FC(F)(F)Oc1ccc(Oc2ccc(CNCCNC3C4CC5CC(C4)CC3C5)cc2)cc1 (centres unmarked) [Compound 8, N^1-adamantan-2-yl-N^2-(4-(4-(trifluoro-methoxy)phenoxy)benzyl)ethane-1,2-diamine]	231 min	sensitive	1.2 µg/mL	24.1 min	0.58 µg/mL (≈ 1.26 µM)	1.2 µg/mL (≈ 2.61 µM)	4.4 µg/mL (≈ 9.55 µM)	0.557	113 mL/min	1.2 µg/mL (≈ 2.61 µM)	0.144	effect on ΔpH [2]: None of the concentrations tested reduced ΔpH; IC50 [4]: 12.5 µg/mL (≈ 27.1 µM); reduction in viability of non-replicating Mtb [5]: 3 log; MIC [6]: 0.575 µg/mL and 1.25 µM; MIC [7]: 9.21 µg/mL and 20 µM; IC50 [8]: 6.25 µg/mL (≈ 13.6 µM); MIC99 [9]: 2.5 µM; intrabacterial pH [1]: ~7; reduction in bacterial cfu compared to untreated infected macrophages [11]: two-log reduction; half-life [12]: 190 min; effect on intracellular ATP [14]: reduces intracellular ATP in a dose-dependent manner; IC50 [15]: 6.25 µg/mL (≈ 13.6 µM); IC50 [18]: 16.1 µg/mL (≈ 35 µM); effect on ΔΨ (red / green fluorescence ratio of DiOC2) [21]: rapid depletion of ΔΨ; IC50 [22]: 6.25 µg/mL (≈ 13.6 µM)
CC[C@@H](CO)NCCN[C@@H](CC)CO [EMB, ethambutol]	–	tolerant	2 µg/mL	–	0.5 µg/mL (≈ 2.45 µM)	1 µg/mL (≈ 4.89 µM)	–	–	–	1 µg/mL (≈ 4.89 µM)	–	–
NNC(=O)c1ccncc1 [INH, isoniazid]	–	tolerant	–	–	0.05 µg/mL (≈ 0.365 µM)	0.025 µg/mL (≈ 0.182 µM)	7000 µg/mL (≈ 51000 µM)	–	–	0.025 µg/mL (≈ 0.182 µM)	–	1×MIC (in vitro MIC) [9]: 0.05 µg/mL
Cc1ncc2n1-c1ccc(Cl)cc1C(c1ccccc1F)=NC2 [Midazolam, midazolam]	3.35 min	–	–	2.41 min	–	–	–	0.924	1130 mL/min	–	0.920	Clint ([23]; microsomes): 239 mL/min
CO[C@H]1/C=C/O[C@@]2(C)Oc3c(C)c(O)c4c(O)c(c(/C=N/N5CCN(C)CC5)c(O)c4c3C2=O)NC(=O)/C(C)=C\C=C\[C@H](C)[C@H](O)[C@@H](C)[C@@H](O)[C@@H](C)[C@H](OC(C)=O)[C@@H]1C [RIF, rifampicin]	–	tolerant	–	–	0.0125 µg/mL (≈ 0.0152 µM)	0.0125 µg/mL (≈ 0.0152 µM)	240 µg/mL (≈ 292 µM)	–	–	0.0125 µg/mL (≈ 0.0152 µM)	–	1×MIC (in vitro MIC) [9]: 0.025 µg/mL
CC(C)=CCC/C(C)=C/CNCCNC1C2CC3CC(C2)CC1C3 (centres unmarked) [SQ109]	2.97 min	–	1.56 µg/mL	2.44 min	–	–	–	0.926	1118 mL/min	–	0.929	effect on ΔΨ [24]: rapidly deplete ΔΨ; effect on ΔΨ and ΔpH [25]: rapidly depleted both the transmembrane potential (ΔΨ) and the chemical proton gradient (ΔpH); MIC (MIC99) [9]: 1.6 µg/mL (≈ 4.84 µM)
